Data from patent US20080070867A1, “2-Imidazolone and 2-Imidazolidinone Heterocyclic Inhibitors of Tyrosine Phosphatases” (Metabasis Therapeutics, Inc., priority 2005, published 2008).

target: T1, Human recombinant PTP-1B (Homo sapiens, UniProt P18031); test: Assay for PTP-1B Activity (pNPP substrate); format: biochemical; conditions: human recombinant PTP-1B (1-321) GST fusion, 2 mM pNPP, pH 7.4, 30° C., 20 min; read-out: Activity Code (IC50 range)
T1 construct: Human recombinant PTP-1B, containing amino acids 1-321, fused to GST enzyme; GST (glutathione S-transferase)
T1 sequence (P18031 1-321): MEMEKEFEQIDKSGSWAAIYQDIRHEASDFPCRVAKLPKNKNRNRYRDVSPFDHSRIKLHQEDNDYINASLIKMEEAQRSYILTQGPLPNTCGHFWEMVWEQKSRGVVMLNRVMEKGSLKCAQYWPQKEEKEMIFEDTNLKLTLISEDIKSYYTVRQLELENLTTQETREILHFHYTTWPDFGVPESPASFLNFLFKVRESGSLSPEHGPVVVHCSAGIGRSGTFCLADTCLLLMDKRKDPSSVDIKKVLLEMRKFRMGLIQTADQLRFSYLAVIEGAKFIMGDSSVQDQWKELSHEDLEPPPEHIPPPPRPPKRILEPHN
Source text: The activity of the compounds as modulators of protein tyrosine phosphatase, including PTP-1B, may be measured in standard assays (see, e.g., Examples 41 and 42). Briefly, the assay described herein employs human recombinant PTP-1B and a pNPP substrate in a rescue assay.
Assay for PTP-1B Activity
Enzyme: Human recombinant PTP-1B, containing amino acids 1-321, fused to GST enzyme (glutathione S-transferase) purified by affinity chromatography (Huyer et al, 1997, J. Biol. Chem., 272, 843-852).
pNPP: p-Nitrophenyl Phosphate (Calbiochem)
Assay Buffer: 50 mM HEPES (pH 7.4), 100 mM NaCl, 2 mM EDTA, 3 mM DTT
(5×) pNPP substrate: 10 mM pNPP in assay buffer
Enzyme: 1 mg/ml PTP1B (1-321), dilute 1:200 in assay buffer
Assay buffer: 50 mM HEPES (pH 7.4), 100 mM NaCl, 2 mM EDTA, 3 mM DTT
Enzyme dilution buffer: 50 mM HEPES (pH 7.4), 100 mM NaCl, 2 mM EDTA, 3 mM DTT
Substrate 198 mM p-Nitrophenyl Phosphate (pNPP) store at 4° C.
The assay was carried out at 30° C. in 96 well plates. The reaction mixture in 60 ul contained 50 mM HEPES (pH 7.4), 100 mM NaCl, 2 mM EDTA, 3 mM DTT, and 2 mM p-Nitrophenyl Phosphate (pNPP). 5 ul of the test compound (inhibitor) dissolved in DMSO or DMSO alone for control was added to each well and the plate was mixed for 2 min. The reaction was initiated by adding 20 ul of diluted PTP1B (5 ng/ul in 50 mM HEPES (pH 7.4), 100 mM NaCl, 2 mM EDTA, 3 mM DTT). After 20 min at 30° C., the enzyme reaction was terminated by adding 100 ul of 2 M K2CO3 to each well. The phosphatase activity was detected by using Victor II plate reader (Wallac) with absorbance detection at 405 nm. All the assays were done at least in duplicate. The initial rate of pNP is plotted against the concentration of inhibitor.

Row | SMILES | IC50
1 | CCOC(=O)n1cc(-c2ccc(S(C)(=O)=O)cc2)n(Cc2ccc(C(F)(F)P(=O)(O)O)c(Br)c2)c1=O [Compound 1, 3-[3-Bromo-4-(difluoro-phosphono-methyl)-benzyl]-4-(4-methanesulfonyl-phenyl)-2-oxo-2,3-dihydro-imidazole-1-carboxylic acid ethyl ester] | 100 to 249 nM
2 | O=C(O)c1ccc(-c2cn(Cc3ccccc3)c(=O)n2Cc2ccc(C(F)(F)P(=O)(O)O)c(Br)c2)cc1 [Compound 2, 4-{1-Benzyl-3-[3-bromo-4-(difluoro-phosphono-methyl)-benzyl]-2-oxo-2,3-dihydro-1H-imidazol-4-yl}-benzoic acid] | 250 to 2500 nM
3 | CS(=O)(=O)c1ccc(-c2c[nH]c(=O)n2Cc2ccc(C(F)(F)P(=O)(O)O)c(Br)c2)cc1 [Compound 3, ({2-Bromo-4-[5-(4-methanesulfonyl-phenyl)-2-oxo-2,3-dihydro-imidazol-1-ylmethyl]-phenyl}-difluoro-methyl)-phosphonic acid] | 250 to 2500 nM
4 | Cn1cc(-c2ccc(S(C)(=O)=O)cc2)n(Cc2ccc(C(F)(F)P(=O)(O)O)c(Br)c2)c1=O [Compound 4, ({2-Bromo-4-[5-(4-methanesulfonyl-phenyl)-3-methyl-2-oxo-2,3-dihydro-imidazol-1-ylmethyl]-phenyl}-difluoro-methyl)-phosphonic acid] | 100 to 249 nM
5 | COC(=O)c1ccc(-c2cn(Cc3ccccc3)c(=O)n2Cc2ccc(C(F)(F)P(=O)(O)O)c(Br)c2)cc1 [Compound 6, 4-{1-Benzyl-3-[3-bromo-4-(difluoro-phosphono-methyl)-benzyl]-2-oxo-2,3-dihydro-1H-imidazol-4-yl}-benzoic acid methyl ester] | 100 to 249 nM
6 | O=C(O)c1ccc(-c2c[nH]c(=O)n2Cc2ccc(C(F)(F)P(=O)(O)O)c(Br)c2)cc1 [Compound 7, 4-{3-[3-Bromo-4-(difluoro-phosphono-methyl)-benzyl]-2-oxo-2,3-dihydro-1H-imidazol-4-yl}-benzoic acid] | 250 to 2500 nM
7 | O=C(O)c1ccc(-c2cn(Cc3ccccc3)c(=O)n2Cc2ccc(C(F)(F)P(=O)(O)O)c(Cl)c2)cc1 [Compound 9, 4-{1-Benzyl-3-[3-chloro-4-(difluoro-phosphono-methyl)-benzyl]-2-oxo-2,3-dihydro-1H-imidazol-4-yl}-benzoic acid] | 250 to 2500 nM
8 | COC(=O)c1ccc(-c2cn(Cc3ccccc3)c(=O)n2Cc2ccc(C(F)(F)P(=O)(O)O)c(Cl)c2)cc1 [Compound 10, 4-{1-Benzyl-3-[3-chloro-4-(difluoro-phosphono-methyl)-benzyl]-2-oxo-2,3-dihydro-1H-imidazol-4-yl}-benzoic acid methyl ester] | 250 to 2500 nM
9 | COC(=O)c1ccc(-c2cn(Cc3ccc(F)cc3)c(=O)n2Cc2ccc(C(F)(F)P(=O)(O)O)c(Br)c2)cc1 [Compound 11, 4-[3-[3-Bromo-4-(difluoro-phosphono-methyl)-benzyl]-1-(4-fluoro-benzyl)-2-oxo-2,3-dihydro-1H-imidazol-4-yl]-benzoic acid methyl ester] | 100 to 249 nM
10 | COC(=O)c1ccc(-c2cn(CCc3ccccc3)c(=O)n2Cc2ccc(C(F)(F)P(=O)(O)O)c(Br)c2)cc1 [Compound 12, 4-{3-[3-Bromo-4-(difluoro-phosphono-methyl)-benzyl]-2-oxo-1-phenethyl-2,3-dihydro-1H-imidazol-4-yl}-benzoic acid methyl ester] | 250 to 2500 nM
11 | O=C(O)c1ccc(-c2cn(Cc3ccc(F)cc3)c(=O)n2Cc2ccc(C(F)(F)P(=O)(O)O)c(Br)c2)cc1 [Compound 13, 4-[3-[3-Bromo-4-(difluoro-phosphono-methyl)-benzyl]-1-(4-fluoro-benzyl)-2-oxo-2,3-dihydro-1H-imidazol-4-yl]-benzoic acid] | 250 to 2500 nM
12 | O=C(O)c1ccc(-c2cn(CCc3ccccc3)c(=O)n2Cc2ccc(C(F)(F)P(=O)(O)O)c(Br)c2)cc1 [Compound 14, 4-{3-[3-Bromo-4-(difluoro-phosphono-methyl)-benzyl]-2-oxo-1-phenethyl-2,3-dihydro-1H-imidazol-4-yl}-benzoic acid] | 250 to 2500 nM
13 | COC(=O)c1ccc(-c2cn(Cc3ccc(C#N)cc3)c(=O)n2Cc2ccc(C(F)(F)P(=O)(O)O)c(Br)c2)cc1 [Compound 15, 4-[3-[3-Bromo-4-(difluoro-phosphono-methyl)-benzyl]-1-(4-cyano-benzyl)-2-oxo-2,3-dihydro-1H-imidazol-4-yl]-benzoic acid methyl ester] | 100 to 249 nM
14 | CCOC(=O)c1ccc(-c2cn(Cc3ccccc3)c(=O)n2Cc2ccc(C(F)(F)P(=O)(O)O)c(Br)c2)cc1 [Compound 16, 4-{1-Benzyl-3-[3-bromo-4-(difluoro-phosphono-methyl)-benzyl]-2-oxo-2,3-dihydro-1H-imidazol-4-yl}-benzoic acid ethyl ester] | 250 to 2500 nM
15 | CS(=O)(=O)c1ccc(-c2cn(Cc3ccccc3)c(=O)n2Cc2ccc(C(F)(F)P(=O)(O)O)c(Br)c2)cc1 [Compound 17, ({4-[3-Benzyl-5-(4-methanesulfonyl-phenyl)-2-oxo-2,3-dihydro-imidazol-1-ylmethyl]-2-bromo-phenyl}-difluoro-methyl)-phosphonic acid] | < 99 nM
16 | N#Cc1ccc(-c2cn(Cc3ccccc3)c(=O)n2Cc2ccc(C(F)(F)P(=O)(O)O)c(Br)c2)cc1 [Compound 20, ({4-[3-Benzyl-5-(4-cyano-phenyl)-2-oxo-2,3-dihydro-imidazol-1-ylmethyl]-2-bromo-phenyl}-difluoro-methyl)-phosphonic acid] | 100 to 249 nM
17 | CS(=O)(=O)c1ccc(-c2cn(C3CC3)c(=O)n2Cc2ccc(C(F)(F)P(=O)(O)O)c(Br)c2)cc1 [Compound 21, ({2-Bromo-4-[3-cyclopropyl-5-(4-methanesulfonyl-phenyl)-2-oxo-2,3-dihydro-imidazol-1-ylmethyl]-phenyl}-difluoro-methyl)-phosphonic acid] | 100 to 249 nM
18 | CS(=O)(=O)c1ccc(-c2cn(Cc3cccc(F)c3)c(=O)n2Cc2ccc(C(F)(F)P(=O)(O)O)c(Br)c2)cc1 [Compound 22, ({2-Bromo-4-[3-(3-fluoro-benzyl)-5-(4-methanesulfonyl-phenyl)-2-oxo-2,3-dihydro-imidazol-1-ylmethyl]-phenyl}-difluoro-methyl)-phosphonic acid] | 100 to 249 nM
19 | COC(=O)c1ccc(-c2cn(Cc3cc(OC)cc(OC)c3)c(=O)n2Cc2ccc(C(F)(F)P(=O)(O)O)c(Br)c2)cc1 [Compound 23, 4-[3-[3-Bromo-4-(difluoro-phosphono-methyl)-benzyl]-1-(3,5-dimethoxy-benzyl)-2-oxo-2,3-dihydro-1H-imidazol-4-yl]-benzoic acid methyl ester] | < 99 nM
20 | COC(=O)c1ccc(-c2cn(C3CC3)c(=O)n2Cc2ccc(C(F)(F)P(=O)(O)O)c(Br)c2)cc1 [Compound 24, 4-{3-[3-Bromo-4-(difluoro-phosphono-methyl)-benzyl]-1-cyclopropyl-2-oxo-2,3-dihydro-1H-imidazol-4-yl}-benzoic acid methyl ester] | 100 to 249 nM
21 | COC(=O)c1ccc(-c2cn(Cc3ccccn3)c(=O)n2Cc2ccc(C(F)(F)P(=O)(O)O)c(Br)c2)cc1 [Compound 25, 4-{3-[3-Bromo-4-(difluoro-phosphono-methyl)-benzyl]-2-oxo-1-pyridin-2-ylmethyl-2,3-dihydro-1H-imidazol-4-yl}-benzoic acid methyl ester] | 100 to 249 nM
22 | O=c1n(Cc2ccccc2)cc(-c2ccc(Cl)cc2)n1Cc1ccc(C(F)(F)P(=O)(O)O)c(Br)c1 [Compound 26, ({4-[3-Benzyl-5-(4-chloro-phenyl)-2-oxo-2,3-dihydro-imidazol-1-ylmethyl]-2-bromo-phenyl}-difluoro-methyl)-phosphonic acid] | 100 to 249 nM
23 | NC(=O)c1ccc(-c2cn(Cc3ccccc3)c(=O)n2Cc2ccc(C(F)(F)P(=O)(O)O)c(Br)c2)cc1 [Compound 27, ({4-[3-Benzyl-5-(4-carbamoyl-phenyl)-2-oxo-2,3-dihydro-imidazol-1-ylmethyl]-2-bromo-phenyl}-difluoro-methyl)-phosphonic acid] | 100 to 249 nM
